Laboratory results taken from patent US20220162221A1, “Imaging Agents” (UCB Biopharma SRL, priority 2017, published 2022).

What was measured:
[1] = target: T1, dopamine D5 receptor (D5R) (Homo sapiens, UniProt P21918); test: D5R binding, CEREP panel and pKi follow-up
T1 construct: purchased CEREP, contract assay
Method: (§1) Compound selectivity for human D1R was assessed at 10 μM at CEREP against a panel of 80 targets (n=1 with data in duplicate) including receptors, transporters, enzymes and ion channels. Potentially relevant affinity was identified for only 3 targets: dopamine D5 receptor (D5R), tachykinin NK1 receptors and adenosine transporter (ADET) with >60% inhibition at 10 μM of compound (±)-(I). Affinity (pKi) of compound of formula (±)-I for human DSR, NK1 receptor and ADET were then measured.

tachykinin NK1 receptors = target: T2, tachykinin NK1 receptors (Homo sapiens, UniProt P25103); test: NK1 binding, CEREP panel; settings: n=1 in duplicate
T2 construct: purchased CEREP, contract assay
Method: as §1

[2] = system: adenosine transporter (ADET); test: Adenosine transporter binding, CEREP panel; parameters: species or system human; settings: at 10 μM, n=1 in duplicate
Method: as §1

[3] = system: panel of 80 targets including receptors, transporters, enzymes and ion channels; test: Selectivity panel of 80 targets (CEREP); assay type: binding
Method: (§2) To assess compound (I) affinity and selectivity for D1, it has been tested in competitive radioligand binding assays. Competitive radioligand binding assays were then used to measure (±)-I affinity for D1 receptor and assess its selectivity regarding a large panel of 80 related and unrelated targets.
as §1

hD1R in SK-N-MC cells = hD1R in SK-N-MC cells (Homo sapiens, UniProt P21728); test: cAMP HTRF D1 functional assay; settings: cAMP HTRF
Method: The reaction was terminated by consecutive additions of 10 μL d2 detection reagent and the cryptate reagent both diluted in lysis buffer. After a period of 60 min at room temperature, changes in HTRF emission ratio were determined and transformed in [cAMP]i using a standard curve.

human D1R = human D1R (Homo sapiens, UniProt P21728); test: [3H]SCH23390 radioligand competitive binding (CEREP); parameters: purchased CEREP (Celle l'Evescault, France), contract assay
Method: as §2
Affinity (pKi) of Compound of formula (±)-(I) for recombinant human D1R was measured at CEREP (Celle l'Evescault, France) by [^3]SCH23390 radioligand competitive binding experiments.

[4] = competitive radioligand binding

T1 sequence (P21918 whole entry): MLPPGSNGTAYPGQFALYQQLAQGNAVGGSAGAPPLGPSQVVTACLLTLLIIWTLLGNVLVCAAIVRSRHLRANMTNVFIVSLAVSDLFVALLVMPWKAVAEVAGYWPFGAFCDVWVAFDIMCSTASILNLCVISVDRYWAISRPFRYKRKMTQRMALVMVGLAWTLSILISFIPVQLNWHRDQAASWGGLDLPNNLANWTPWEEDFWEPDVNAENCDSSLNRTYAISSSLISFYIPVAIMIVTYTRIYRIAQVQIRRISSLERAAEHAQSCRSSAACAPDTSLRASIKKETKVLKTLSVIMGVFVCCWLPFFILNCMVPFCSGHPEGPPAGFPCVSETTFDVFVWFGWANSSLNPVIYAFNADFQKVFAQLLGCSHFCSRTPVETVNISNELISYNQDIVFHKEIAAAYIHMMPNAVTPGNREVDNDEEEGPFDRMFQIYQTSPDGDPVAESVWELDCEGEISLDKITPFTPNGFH
Sequence of human D1R (P21728 whole entry): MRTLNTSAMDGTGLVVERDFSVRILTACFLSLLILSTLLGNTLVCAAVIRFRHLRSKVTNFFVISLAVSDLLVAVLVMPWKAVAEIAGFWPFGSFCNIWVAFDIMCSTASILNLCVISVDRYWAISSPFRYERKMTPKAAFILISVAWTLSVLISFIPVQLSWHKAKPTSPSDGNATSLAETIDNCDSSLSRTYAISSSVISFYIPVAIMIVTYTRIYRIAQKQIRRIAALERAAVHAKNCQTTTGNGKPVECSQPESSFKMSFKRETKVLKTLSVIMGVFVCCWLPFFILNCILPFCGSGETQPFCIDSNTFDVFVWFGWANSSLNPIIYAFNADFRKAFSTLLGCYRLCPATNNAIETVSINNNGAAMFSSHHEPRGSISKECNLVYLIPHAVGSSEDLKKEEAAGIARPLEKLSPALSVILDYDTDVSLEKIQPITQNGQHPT
T2 sequence (P25103 whole entry): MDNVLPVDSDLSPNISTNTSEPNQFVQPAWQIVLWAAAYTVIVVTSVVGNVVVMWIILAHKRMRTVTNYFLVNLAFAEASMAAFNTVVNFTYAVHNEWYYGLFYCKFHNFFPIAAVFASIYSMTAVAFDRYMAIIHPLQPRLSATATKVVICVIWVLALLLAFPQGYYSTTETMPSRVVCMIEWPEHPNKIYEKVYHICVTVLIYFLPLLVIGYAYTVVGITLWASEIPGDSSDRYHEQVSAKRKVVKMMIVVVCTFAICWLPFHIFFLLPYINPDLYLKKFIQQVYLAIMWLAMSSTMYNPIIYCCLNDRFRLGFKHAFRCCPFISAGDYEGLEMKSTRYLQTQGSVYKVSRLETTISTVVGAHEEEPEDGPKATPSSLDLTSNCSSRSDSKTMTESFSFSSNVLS
Sequence of hD1R in SK-N-MC cells (P21728 whole entry): as the sequence (P21728 whole entry) above

Cc1c(-c2ccc(Oc3nccc4occc34)cc2CF)n(C)c(=O)[nH]c1=O (racemic) [Compound (±)-(I), 6-[2-(fluoromethyl)-4-(furo[3,2-c]pyridin-4-yloxy)phenyl]-1,5-dimethylpyrimidine-2,4(1H,3H)-dione]
Ki [1]: 0.398 nM
inhibition at 10 µM ([1]; at 10 μM, n=1 in duplicate): > 60%
affinity for D5 receptor [1, 4]: subnanomolar range
inhibition at 10 µM (tachykinin NK1 receptors): > 60%
inhibition, adenosine transporter (ADET) [2]: > 60%
selectivity with respect to the other 79 tested targets ([3]; D1-like vs other targets): more than 1000 fold
pKi for the other 79 tested targets ([3]; all targets other than D1R, D5R excepted by text): ≤ 6.0
binding to the other tested targets ([3]; panel of 80 targets): do not significantly bind
agonist-like effect on D1 receptor (hD1R in SK-N-MC cells): significant direct agonist-like effect
Ki (human D1R; [3H]SCH23390 competition, read-out: pKi for human D1R (converted)): 0.631 nM
affinity for D1 receptor (human D1R; [4]): subnanomolar range
